How the values were obtained:
[1] = tested on: mice; experiment: Permanent focal cerebral ischemia in mice; type: in vivo; details: for Neuroprotective effect (necrotic brain surface area): 30 min after surgery, male NMRI mice, *p < 0.05; for dose that statistically significantly decreased the necrotic surface area: permanent focal ischemia, mice
Experimental: Permanent Focal Cerebral Ischemia in Mice
In these experiments a modified method of Karkoutly et al. (1990) was used. Male NMRI mice weighing 30-35 g were anaesthetized with 2,2,2-tribromoethanol at 500 mg/kg (20 ml/kg) administered i.p. The surgical procedure was performed according to Welsh et al. (1987). After drilling a hole into the skull the distal branch of the middle cerebral artery was electrocoagulated. Test compounds were administered i.p. 30 min after surgery. Two days later the animals were deeply anaesthetized with sodium pentobarbital (120 mg/kg i.p.). The brain was perfused through the left ventricle of the heart with a 4% solution of 2,3,5-triphenyltetrazolium chloride (TTC). One hour later the animals were decapitated, the brains were removed and placed into ice-cold saline for a few min. Then the brains were fixed in 8% formalin solution for 24 hours. The necrotic (non-stained with TTC) brain surface area was measured by means of an image analyser computer system (DigiCell for Windows 4.0). Statistical significance was assessed using ANOVA followed by Duncan's test.

[2] = tested on: mice; experiment: Maximal electroshock (MES) test in mice; type: in vivo; details: male NMRI mice, electroshock 30 min after ip. treatment
Experimental: Maximal Electroshock (MES) Test in Mice
The experiments were performed according to Swinyard et al. (1952). Male NMRI mice weighing 20 to 25 g were treated intraperitoneally with the test compounds administered in a volume of 10 ml/kg. […] The number of animals showing positive reaction was counted in each group. The dose of test substance causing 50% (ED50) inhibition was calculated according to the method of Litchfield and Wilcoxon (1949).
MES=maximal electroshock (in mice): electroshock of sufficient current intensity applied through corneal electrodes to mice causes tonic extensor convulsion of the hind legs.

[3] = Study of toxic effects in rats (body weight gain); type: in vivo; details: female Wistar rats, 15 mg/kg/day orally for 7 days; mean ± standard error of the mean; control 17.4 ± 1.4
Experimental: Study of Toxic Effects in Rats
The study was performed in female Wistar rats. On the day preceding the first treatment all animals were weighed and randomly allocated into treatment groups (10 animals/group). The test compounds were suspended in 0.4% hydroxymethyl cellulose solution (Methocell F4 M, Daw Chemical Company, USA) and were administered orally once a day for 7 days. The dose of non-chiral compounds according to the examples 8 and 9 was 15 mg/kg/day.
Animals of the control group were treated with the vehicle. The weight of the animals was registered every day. Weight gain was the difference between body weights on the first day and last day of the experiment. Toxicity of the test compounds was shown as a decrease in body weight or negative weight gain.
BWG=body weight gain: the difference between body weights on the first and last days of the experiment given as mean ± standard error of the mean.

SMILES | melting point | Neuroprotective effect (necrotic brain surface area) ([1]; dose 1.0 mg/kg ip.) | Neuroprotective effect (necrotic brain surface area) ([1]; dose 3.0 mg/kg ip.) | Neuroprotective effect (necrotic brain surface area) ([1]; dose 10.0 mg/kg ip.) | dose that statistically significantly decreased the necrotic surface area [1] | MES, ED50 [2] | Neuroprotective effect (necrotic brain surface area) ([1]; dose 0.1 mg/kg ip.) | Neuroprotective effect (necrotic brain surface area) ([1]; dose 0.3 mg/kg ip.) | BWG (body weight gain) [3]
CC(=O)N1N=C(c2ccc(N)c(C)c2)c2cc(Cl)ccc2C=C1C | 209 to 211 °C | – | – | – | – | – | – | – | –
CCC(=O)N1N=C(c2ccc(N)c(C)c2)c2cc(Cl)ccc2C=C1C | 218 to 221 °C | – | – | – | – | – | – | – | –
CC(=O)N1N=C(c2ccc(N)cc2)c2cc3c(cc2C=C1C)OCO3 [7-acetyl-5-(4-aminophenyl)-8-methyl-7H-1,3-dioxolo-[4,5-h][2,3]-benzodiazepine, reference compound] | – | −1 | −14 | −21* | 10 mg/kg i.p. | – | – | – | –
CNC(=O)N1N=C(c2ccc(N)c(C)c2)c2cc(Cl)ccc2C=C1C [Example 8, 1-(4-Amino-3-methylphenyl)-8-chloro-4-methyl-3H-2,3-benzodiazepine-3-carboxylic acid methyl amide] | 210 to 212 °C | −17* | −15* | −22* | 0.3 mg/kg i.p. | 4.1 mg/kg ip. | −5 | −17* | 9.9 ± 3.1 g
CC1=Cc2ccc(Cl)cc2C(c2ccc(N)c(C)c2)=NN1C(=O)NC1CC1 [Example 9, 1-(4-Amino-3-methylphenyl)-8-chloro-4-methyl-3H-2,3-benzodiazepine-3-carboxylic acid cyclopropyl amide] | 233 to 236 °C | – | – | – | – | 2.2 mg/kg ip. | – | – | 17.7 ± 1.3 g

Reference: US7960375B2, “8-chloro-2,3-benzodiazepine derivatives” (priority 2003, dated 2011)
